From patent US20260285850A1, “SUBSTITUTED OXAZOLIDINONES AND IMIDAZOLINONES AS HERBICIDES” (FMC CORPORATION, priority 2023, published 2026)

What was measured:
Assay type in all cases: in vivo
[1] = test system: horseweed (Erigeron canadensis); assay: Test A postemergence application, visual injury rating 0-100
Summary of the method: (§1)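 Greenhouse test: loam/sand pots received a surfactant-containing formulation, as a preemergence directed soil spray or a postemergence spray on young plants. Injury was judged visually at day 10 relative to untreated controls.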

[2] = test system: blackgrass (Alopecurus myosuroides); assay: as above
Summary of the method: as §1

kochia (Bassia scoparia) [3] = assay: as above
Summary of the method: as §1

soybean (Glycine max) [4] = assay: as above
Summary of the method: as §1

[5] = test system: ragweed (common ragweed, Ambrosia artemisiifolia); assay: as above
Summary of the method: as §1

[6] = test system: oat, wild (wild oat, Avena fatua); assay: as above
Summary of the method: as §1

[7] = test system: ryegrass, Italian (italian ryegrass, Lolium multiflorum); assay: as above
Summary of the method: as §1

[8] = test system: green foxtail (Setaria viridis); assay: as above
Summary of the method: as §1

[9] = test system: galium (catchweed bedstraw, Galium aparine); assay: as above
Summary of the method: as §1

[10] = test system: wheat (Triticum aestivum); assay: as above
Summary of the method: as §1

[11] = test system: palmer (palmer amaranth, palmer pigweed, Amaranthus palmeri); assay: as above
Summary of the method: as §1

[12] = test system: barnyardgrass (Echinochloa crus-galli); assay: as above
Summary of the method: as §1

corn (Zea mays) [13] = assay: as above
Summary of the method: as §1

rice (Oryza sativa) = assay: Test B flooded paddy test, visual plant response rating 0-100; conditions: 250 g ai/ha, Flood, applied to paddy water, evaluated after 13 days
Summary of the method: (§2)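 Paddy-water application: test compounds went directly into water flooded 3 cm above the soil surface, with plants at 2 leaves. After a 13-day greenhouse period, responses were judged by eye relative to controls; a dash marks an untested entry.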

[14] = test system: ducksalad (Heteranthera limosa); assay: as above; conditions: 250 g ai/ha, Flood, applied to paddy water, evaluated after 13 days
Summary of the method: as §2

[15] = test system: sedge, umbrella (small-flower umbrella sedge, Cyperus difformis); assay: as above; conditions: 250 g ai/ha, Flood, applied to paddy water, evaluated after 13 days
Summary of the method: as §2

[16] = test system: barnyardgrass (Echinochloa crusgalli); assay: as above; conditions: 250 g ai/ha, Flood, applied to paddy water, evaluated after 13 days
Summary of the method: as §2

[17] = test system: blackgrass (Alopecurus myosuroides); assay: Test A preemergence soil spray, visual injury rating 0-100; conditions: 10 days
Summary of the method: as §1

kochia (Bassia scoparia) [18] = assay: as above; conditions: 10 days
Summary of the method: as §1

soybean (Glycine max) [19] = assay: as above; conditions: 10 days
Summary of the method: as §1

[20] = test system: ragweed (common ragweed, Ambrosia artemisiifolia); assay: as above; conditions: 10 days
Summary of the method: as §1

[21] = test system: oat, wild (wild oat, Avena fatua); assay: as above; conditions: 10 days
Summary of the method: as §1

[22] = test system: ryegrass, Italian (italian ryegrass, Lolium multiflorum); assay: as above; conditions: 10 days
Summary of the method: as §1

[23] = test system: green foxtail (Setaria viridis); assay: as above; conditions: 10 days
Summary of the method: as §1

[24] = test system: wheat (Triticum aestivum); assay: as above; conditions: 10 days
Summary of the method: as §1

[25] = test system: palmer (palmer amaranth, palmer pigweed, Amaranthus palmeri); assay: as above; conditions: 10 days
Summary of the method: as §1

[26] = test system: barnyardgrass (Echinochloa crus-galli); assay: as above; conditions: 10 days
Summary of the method: as §1

corn (Zea mays) [27] = assay: as above; conditions: 10 days
Summary of the method: as §1

[28] = 62 g ai/ha, postemergence, 10 days, 0 = no effect, 100 = complete control
[29] = Postemergence, 16 g ai/ha, greenhouse 10 days, 0 no effect, 100 complete control
[30] = 62 g ai/ha, 0 = no effect, 100 = complete control

COC(=O)C1C=CC(NC(=O)C2(C)CN(c3cccc(OC(F)(F)F)c3)C(=O)O2)C1 (mixture of isomers) [Compound 101]
Horseweed plant response rating (0-100) [1, 28]: 10 | Horseweed plant response rating (0 to 100 scale) [1, 29]: 10 | Blackgrass plant response rating (0-100) [2, 28]: 90 | Blackgrass plant response rating (0 to 100 scale) [2, 29]: 80 | Kochia plant response rating (0-100) (kochia (Bassia scoparia) [3]; [28]): 60 | Kochia plant response rating (0 to 100 scale) (kochia (Bassia scoparia) [3]; [29]): 10 | Soybean plant response rating (0-100) (soybean (Glycine max) [4]; [28]): 60 | Soybean plant response rating (0 to 100 scale) (soybean (Glycine max) [4]; [29]): 40 | Ragweed plant response rating (0-100) [5, 28]: 30 | Ragweed plant response rating (0 to 100 scale) [5, 29]: 0 | Oat, Wild plant response rating (0-100) [6, 28]: 90 | Oat, Wild plant response rating (0 to 100 scale) [6, 29]: 70 | Ryegrass, Italian plant response rating (0-100) [7, 28]: 70 | Ryegrass, Italian plant response rating (0 to 100 scale) [7, 29]: 50 | Foxtail, Green plant response rating (0-100) [8, 28]: 50 | Foxtail, Green plant response rating (0 to 100 scale) [8, 29]: 10 | Galium plant response rating (0-100) [9, 28]: 60 | Galium plant response rating (0 to 100 scale) [9, 29]: 50 | Wheat plant response rating (0-100) [10, 28]: 80 | Wheat plant response rating (0 to 100 scale) [10, 29]: 30 | Pigweed, Palmer plant response rating (0-100) [11, 28]: 10 | Pigweed, Palmer plant response rating (0 to 100 scale) [11, 29]: 0 | Barnyardgrass plant response rating (0-100) [12, 28]: 90 | Barnyardgrass plant response rating (0 to 100 scale) [12, 29]: 60 | Corn plant response rating (0-100) (corn (Zea mays) [13]; [28]): 90 | Corn plant response rating (0 to 100 scale) (corn (Zea mays) [13]; [29]): 50 | Plant response rating, Rice (0 to 100 scale, 0 is no effect and 100 is complete control) (rice (Oryza sativa)): 0 | Plant response rating, Ducksalad (0 to 100 scale, 0 is no effect and 100 is complete control) [14]: 0 | Plant response rating, Sedge, Umbrella (0 to 100 scale, 0 is no effect and 100 is complete control) [15]: 0 | Plant response rating, Barnyardgrass (0 to 100 scale, 0 is no effect and 100 is complete control) [16]: 0 | Blackgrass plant response rating ([17]; 16 g ai/ha, 0 to 100 scale): 0 | Blackgrass plant response rating (0-100) [17, 30]: 50 | Kochia plant response rating (kochia (Bassia scoparia) [18]; 16 g ai/ha, 0 to 100 scale): 0 | Kochia plant response rating (0-100) (kochia (Bassia scoparia) [18]; [30]): 0 | Soybean plant response rating (soybean (Glycine max) [19]; 16 g ai/ha, 0 to 100 scale): 0 | Soybean plant response rating (0-100) (soybean (Glycine max) [19]; [30]): 0 | Ragweed plant response rating ([20]; 16 g ai/ha, 0 to 100 scale): 0 | Ragweed plant response rating (0-100) [20, 30]: 10 | Oat, Wild plant response rating ([21]; 16 g ai/ha, 0 to 100 scale): 0 | Oat, Wild plant response rating (0-100) [21, 30]: 80 | Ryegrass, Italian plant response rating ([22]; 16 g ai/ha, 0 to 100 scale): 0 | Ryegrass, Italian plant response rating (0-100) [22, 30]: 80 | Foxtail, Green plant response rating ([23]; 16 g ai/ha, 0 to 100 scale): 0 | Foxtail, Green plant response rating (0-100) [23, 30]: 0 | Wheat plant response rating ([24]; 16 g ai/ha, 0 to 100 scale): 0 | Wheat plant response rating (0-100) [24, 30]: 40 | Pigweed, Palmer plant response rating ([25]; 16 g ai/ha, 0 to 100 scale): 0 | Pigweed, Palmer plant response rating (0-100) [25, 30]: 0 | Barnyardgrass plant response rating ([26]; 16 g ai/ha, 0 to 100 scale): 0 | Barnyardgrass plant response rating (0-100) [26, 30]: 60 | Corn plant response rating (corn (Zea mays) [27]; 16 g ai/ha, 0 to 100 scale): 0 | Corn plant response rating (0-100) (corn (Zea mays) [27]; [30]): 50
